Patent publication US20260035384A1, “COMPOUND CONTAINING CYCLOHEXYL” (CHIA TAI TIANQING PHARMACEUTICAL GROUP CO., LTD., priority 2022, published 2026)
Where a chain is given by its changes, count along the chain named.

Tests used:
Assay type in all cases: cell-based
AR in VCaP cells = target: T1, AR in VCaP cells (Homo sapiens, UniProt P10275); assay: Assay on degradation activity for AR in VCaP cells (HTRF human androgen receptor detection kit); settings: 24 h incubation
T1 construct: Assay on Degradation Activity for AR in VCaP Cells; endogenous in cells; host or cells: VCaP cells
T1 sequence (P10275 1-920): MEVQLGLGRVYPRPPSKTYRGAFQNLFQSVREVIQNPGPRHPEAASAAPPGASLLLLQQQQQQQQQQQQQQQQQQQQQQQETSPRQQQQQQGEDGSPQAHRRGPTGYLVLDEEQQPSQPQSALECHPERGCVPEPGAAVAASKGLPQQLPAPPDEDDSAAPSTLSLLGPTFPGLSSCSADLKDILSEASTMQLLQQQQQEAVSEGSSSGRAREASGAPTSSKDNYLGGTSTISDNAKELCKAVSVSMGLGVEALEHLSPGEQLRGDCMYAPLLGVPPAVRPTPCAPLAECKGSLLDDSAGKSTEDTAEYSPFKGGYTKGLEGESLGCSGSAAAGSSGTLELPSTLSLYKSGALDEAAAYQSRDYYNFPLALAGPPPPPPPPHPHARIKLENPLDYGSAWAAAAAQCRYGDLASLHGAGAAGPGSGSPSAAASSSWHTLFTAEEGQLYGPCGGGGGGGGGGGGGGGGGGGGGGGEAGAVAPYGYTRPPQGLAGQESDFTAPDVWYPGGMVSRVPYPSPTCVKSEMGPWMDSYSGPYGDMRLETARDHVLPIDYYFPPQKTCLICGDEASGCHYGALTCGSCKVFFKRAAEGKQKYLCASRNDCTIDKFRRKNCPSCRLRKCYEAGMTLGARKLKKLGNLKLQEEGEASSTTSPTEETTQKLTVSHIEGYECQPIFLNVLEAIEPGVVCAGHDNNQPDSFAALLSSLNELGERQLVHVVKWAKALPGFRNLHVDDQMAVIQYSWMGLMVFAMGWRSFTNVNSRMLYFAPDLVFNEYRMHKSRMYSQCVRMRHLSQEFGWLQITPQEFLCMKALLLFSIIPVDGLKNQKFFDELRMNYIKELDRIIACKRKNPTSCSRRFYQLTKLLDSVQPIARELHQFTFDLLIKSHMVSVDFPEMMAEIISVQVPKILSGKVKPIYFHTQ
Procedure: (§1) The detection was carried out using the HTRF HUMAN ANDROGEN RECEPTOR DETECTION KIT (cisbio, 64ANDRPEG), 4× Supplemented Lysis buffer was prepared using the Blocking reagent stock solution (100×) and Lysis buffer stock solution (4×), and 1× Supplemented Lysis buffer was prepared using the 4× Supplemented Lysis buffer and ddH2O. Premixed antibody solutions were prepared using Detection buffer, Androgen Receptor Eu Cryptate antibody, and Androgen Receptor d2 antibody.
(§2) VCaP cells in a good growth state were taken, washed with PBS, digested with pancreatin, and added with 2% CSS—FBS phenol red-free DMEM complete medium to terminate the digestion. The cells were collected by using a centrifuge tube, adjusted to a cell density of 1×10^6 cells/mL, and seeded in a 96-well plate (100 µL/well). The cells were incubated overnight in a cell incubator. Compounds were added using a nanoliter pipettor such that the final concentrations of the compounds were 1000 nM-0.977 nM. Two duplicate wells were set for each concentration, and meanwhile, a control was set. After another 24 h of incubation in the cell incubator, the medium was pipetted out, the 1× Supplemented Lysis buffer was added at 40 μL/well to lyse the cells. After the cells were oscillated for 40 min at room temperature, 16 μL of the cell lysate was added to a 384-well plate, the Premixed antibody solutions were added at 4 μL/well, and the mixture was left to stand at 25° C. for 2 h. Fluorescence values were detected at 665 nm/620 nm using an Envision microplate reader, the four-parameter analysis was performed, the dose-response curves were fit, and DC50 (the concentration of the drug when the degradation rate reaches 50%) and Dmax (the maximum degradation rate) were calculated.

VCaP cells = assay: Assay on inhibitory activity for VCaP cell proliferation (CCK-8); settings: 168 h incubation
Procedure: 2.1 Assay on inhibitory activity for VCaP cell proliferation VCaP cells in a good growth state were taken, washed with PBS, digested with pancreatin, and added with 5% CSS—FBS phenol red-free DMEM complete medium to terminate the digestion. The cells were collected by using a centrifuge tube, adjusted to a cell density of 1×10^5 cells/mL, and seeded in a 96-well plate (100 μL/well). Meanwhile, compounds were added using a nanoliter pipettor such that the final concentrations of the compounds were 10000 nM-0.61 nM. Two duplicate wells were set for each concentration, and meanwhile, a control was set. After another 168 h of incubation in the cell incubator, the detection reagent CCK-8 (manufacturer: Dojindo, 10 μL/well) was added.

LNCaP cells = assay: Assay on inhibitory activity for LNCaP cell proliferation (CCK-8); settings: 168 h incubation
How it was run: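 Cells seeded at 1×10^5 cells/mL in phenol red-free 1640 with 2% CSS-FBS, treated at final 10000 nM-0.61 nM in duplicate. After 168 h incubation, viability read with CCK-8.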

AR in LNCaP cells = target: T2, AR in LNCaP cells (Homo sapiens, UniProt P10275, T878A); assay: Assay on degradation activity for AR in LNCaP cells (HTRF human androgen receptor detection kit); settings: 24 h incubation; for DC50: HTRF
T2 construct: Assay on Degradation Activity for AR in LNCaP Cells; endogenous in cells; host or cells: LNCaP cells
T2 sequence (P10275 1-920 T878A): T1 sequence (P10275 1-920) with T878A
Procedure: as §1
as §2, with “LNCaP” for “VCaP”, “1640” for “DMEM”, “μL/well).” for “µL/well).”, “500 nM-0.488” for “1000 nM-0.977”

IC50 (VCaP cells) [nM]	IC50 (LNCaP cells) [nM]	IC50 (VCaP cells; Homo sapiens, VCaP, 168 h) [nM]	Degradation activity for AR in LNCaP cells (Dmax, %) (AR in LNCaP cells; maximum degradation rate) [%]	Compound	DC50 (AR in VCaP cells) [nM]	IC50 (VCaP cells; Homo sapiens) [nM]	IC50 (LNCaP cells; Homo sapiens) [nM]	DC50 (AR in LNCaP cells) [nM]	Dmax (AR in LNCaP cells; maximum degradation rate) [%]
< 10	< 1000			N#Cc1ccc(O[C@H]2CC[C@H](NC(=O)c3ccc(N4CCN(C5CN(CC6Cc7ccc8c(C9CCC(=O)NC9=O)coc8c7C6)C5)CC4)nn3)CC2)cc1Cl (some centres unmarked) [Compound 108]	≤ 1				
				N#Cc1ccc(O[C@H]2CC[C@H](NC(=O)c3ccc(N4CCC(N5CC(N6CCc7ccc8c(C9CCC(=O)NC9=O)noc8c7CC6)C5)CC4)nn3)CC2)cc1Cl (some centres unmarked) [Compound 95]	≤ 1	< 100	< 1000		
		< 10		N#Cc1ccc(O[C@H]2CC[C@H](NC(=O)c3ccc(N4CCC(N5CC(N6Cc7ccc8c(C9CCC(=O)NC9=O)coc8c7C6)C5)CC4)nn3)CC2)cc1Cl (some centres unmarked) [Compound 96]	≤ 1		< 1000		
				CN(c1ccc(C#N)c(Cl)c1)[C@H]1CC[C@H](NC(=O)c2cnc(N3CCC(CN4CCc5c(ccc6c(C7CCC(=O)NC7=O)noc56)C4)CC3)nc2)CC1 (some centres unmarked) [Compound 117]	≤ 1	< 100	< 1000	≤ 20	> 80
		< 100		N#Cc1ccc(O[C@H]2CC[C@H](NC(=O)c3ccc(N4CCC(N5CC(CN6Cc7ccc8c(C9CCC(=O)NC9=O)coc8c7C6)C5)CC4)nn3)CC2)cc1Cl (some centres unmarked) [Compound 98]	≤ 1		< 1000	≤ 20	> 80
		< 10		N#Cc1ccc(O[C@H]2CC[C@H](NC(=O)c3ccc(N4CCC(CN5CC(CN6Cc7cc8onc(C9CCC(=O)NC9=O)c8cc7C6)C5)CC4)nn3)CC2)cc1Cl (some centres unmarked) [Compound 102]	≤ 1		< 1000	≤ 20	> 80
				CN(c1ccc(C#N)c(Cl)c1)[C@H]1CC[C@H](NC(=O)c2ccc(N3CCC(CN4CCc5c(ccc6c(C7CCC(=O)NC7=O)noc56)C4)CC3)nn2)CC1 (some centres unmarked) [Compound 118]	≤ 1	< 100	< 1000	≤ 20	> 80
				N#Cc1ccc(O[C@H]2CC[C@H](NC(=O)c3ccc(N4CCC5(CC4)CC(CN4CCc6ccc7c(C8CCC(=O)NC8=O)noc7c6CC4)C5)nn3)CC2)cc1Cl (some centres unmarked) [Compound 37]	≤ 1	< 100	< 1000	≤ 20	> 80
< 100	< 1000		>80	N#Cc1ccc(O[C@H]2CC[C@H](NC(=O)c3cnc(N4CCN(C5CN(CC6Cc7ccc8c(C9CCC(=O)NC9=O)coc8c7C6)C5)CC4)nc3)CC2)cc1Cl (some centres unmarked) [Compound 110]	≤ 1			≤ 20	
		< 10		N#Cc1ccc(O[C@H]2CC[C@H](NC(=O)c3ccc(N4CCN(C5CN(CC6Cc7ccc8c(C9CCC(=O)NC9=O)coc8c7C6)C5)CC4)nn3)CC2)cc1Cl (some centres unmarked) [Compound 107]	≤ 1		< 1000	≤ 20	> 80
				N#Cc1ccc(O[C@H]2CC[C@H](NC(=O)c3cnc(N4CCC(CN5CCc6c(ccc7c(C8CCC(=O)NC8=O)noc67)C5)CC4)cn3)CC2)cc1Cl (some centres unmarked) [Compound 145]	≤ 1	< 100	< 1000	≤ 20	> 80
				N#Cc1ccc(O[C@H]2CC[C@H](NC(=O)c3ccc(N4CCC(N5CCC(CN6CCc7c(ccc8c(C9CCC(=O)NC9=O)noc78)C6)CC5)CC4)nn3)CC2)cc1Cl (some centres unmarked) [Compound 88]	≤ 1		< 1000		
				CN(c1ccc(C#N)c(Cl)c1)[C@H]1CC[C@H](NC(=O)c2ccc(N3CC(CN4CCc5c(ccc6c(C7CCC(=O)NC7=O)noc56)C4)C3)cc2)CC1 (some centres unmarked) [Compound 113]	≤ 1	< 100	< 1000		
		< 10		N#Cc1ccc(O[C@H]2CC[C@H](NC(=O)c3ccc(N4CCC(N5CC(CN6CCc7c(ccc8c(C9CCC(=O)NC9=O)noc78)C6)C5)CC4)nn3)CC2)cc1Cl (some centres unmarked) [Compound 92]	≤ 1		< 1000		
				CN(c1ccc(C#N)c(Cl)c1)[C@H]1CC[C@H](NC(=O)c2ccc(N3CCC(CN4CCc5c(ccc6c(C7CCC(=O)NC7=O)noc56)C4)CC3)cc2)CC1 (some centres unmarked) [Compound 58]	≤ 1	< 10	< 1000		
				N#Cc1ccc(O[C@H]2CC[C@H](NC(=O)c3ccc(N4CCC(N5CC(CN6CCc7c(ccc8c(C9CCC(=O)NC9=O)noc78)C6)C5)CC4)cc3)CC2)cc1Cl (some centres unmarked) [Compound 82]	≤ 1		< 1000		
